The Ki is the dissociation constant of the complex between target and ligand, obtained from inhibition or displacement. Usually IC50 stands for the concentration that gives 50% inhibition. By inhibition is commonly meant the share of the control response that was lost under treatment.

The text below walks through data of publication PMC8533206 (Antioxidants, 2021).

The target in one experiment is T1, hMAO-B enzyme (Homo sapiens, UniProt P27338).
T1 construct: purchased Sigma-Aldrich; host or cells: insect cells
T1 sequence (P27338 1-520): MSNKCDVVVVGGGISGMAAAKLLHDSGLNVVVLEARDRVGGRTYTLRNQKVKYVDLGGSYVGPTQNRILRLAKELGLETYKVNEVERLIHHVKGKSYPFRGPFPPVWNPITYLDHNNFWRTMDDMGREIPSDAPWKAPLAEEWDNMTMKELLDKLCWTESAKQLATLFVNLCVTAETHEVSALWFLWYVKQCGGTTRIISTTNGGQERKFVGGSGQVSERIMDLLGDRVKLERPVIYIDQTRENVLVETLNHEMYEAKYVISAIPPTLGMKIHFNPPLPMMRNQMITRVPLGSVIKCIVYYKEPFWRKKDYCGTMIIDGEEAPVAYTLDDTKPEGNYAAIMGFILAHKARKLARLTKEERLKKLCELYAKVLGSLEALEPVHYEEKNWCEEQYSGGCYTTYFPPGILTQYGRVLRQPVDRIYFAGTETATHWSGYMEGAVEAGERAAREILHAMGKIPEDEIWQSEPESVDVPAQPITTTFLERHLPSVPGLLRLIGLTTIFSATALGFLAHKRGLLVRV
Nature of the experiment: Michaelis-Menten kinetic study of MAO-B inhibition mode. Format: biochemical. Conditions: for Type of MAO-B inhibition: Lineweaver-Burk plots intersect at y-axis; for Ki: benzylamine 0.065-4 mM, inhibitor 10, 30, 100 nM, read-out: Ki (inhibition constant), MAO-B. The protocol: The type of MAO-B inhibition of the tested compounds was determined by Michaelis-Menten kinetic study following our recently reported study. The type of MAO-B inhibition of the tested compound(s) was determined by Michaelis–Menten kinetic study. The catalytic rates of the hMAO-B enzyme in the absence or in the presence of three different concentrations (10, 30, and 100 nM) of the tested compound were measured at seven different concentrations of the benzylamine (0.065, 0.125, 0.25, 0.5, 1, 2, and 4 mM). The corresponding progression curves and the Lineweaver-Burk plots were generated using GraphPad Prism 7 (GraphPad Software, Inc., La Jolla, CA, USA). The maximal velocity (Vmax), the Michaelis constant (Km), and the inhibition constant (Ki) were calculated using SigmaPlot® 13.0.
The initial rates of MAO-B inhibition in the absence and presence of the tested compound were measured at various concentrations (0.065, 0.125, 0.25, 0.5, 1, 2, and 4 mM) of benzylamine (a selective substrate for MAO-B). The corresponding progression curves and the Lineweaver-Burk plots were generated using GraphPad Prism 7. Both Michaelis–Menten and the Lineweaver-Burk plots were depicted in Figure 4 and Figure 5. […] The maximal velocity (Vmax), the Michaelis constant (Km), and the inhibition constant (Ki) were calculated using SigmaPlot®.

In experiment [1] the target is T2, Human recombinant MAO-B (hMAO-B) (Homo sapiens, UniProt P27338).
T2 construct: purchased Sigma-Aldrich; host or cells: insect cells
T2 sequence (P27338 1-520): T1 sequence (P27338 1-520)
Kind of experiment: MAO-B inhibition assay (Amplex Red fluorescence, benzylamine substrate). Format: biochemical. Conditions: for IC50: five doses 10, 1, 0.1, 0.01, 0.001 μM, triplicate; for Selectivity Index (SI): ratio of IC50 (MAO-A)/IC50 (MAO-B); for % Inhibition of MAO-B at 10 µM / inhibition at 10 µM: single dose 10 µM. The protocol:
The biological evaluation of the tested compounds over both MAO-A and MAO-B was performed following the previously reported method. The MAO activity was measured in relative fluorescence units (RFU) evoked by peroxidase-catalyzed oxidation of Amplex Red® to resorufin, in which H2O2 generated by MAO reaction was used as the electron donor. Human recombinant MAO-A (hMAO-A) and MAO-B (hMAO-B) enzymes expressed in insect cells were obtained from Sigma-Aldrich. The 2 μL of test compound in DMSO (final concentration: 1–10 μM) was treated with 98 μL of hMAO enzyme solution in 50 mM sodium phosphate buffer (pH 7.4, final protein amounts: ~1.25 μg protein/well for MAO-A and ~2.5 μg protein/well for MAO-B) on 96-well black plate and incubated for 15 min at 37 °C. Then, 100 μL of reaction working solution which is a mixed solution of 400 μM Amplex Red® (Cayman, final concentration: 200 μM), 2 U/mL horseradish peroxidase (Sigma-Aldrich, final concentration: 1 U/mL) and 2 mM substrate (p-tyramine for MAO-A, benzylamine for MAO-B, Sigma-Aldrich, final concentration: 1 mM) in 50 mM sodium phosphate buffer (pH 7.4) were added and incubated for 20 min at 37 °C in the dark. The fluorescent intensity was quantified using a microplate reader (SpectraMax®i3, Molecular Device) with an excitation at 545 nm and an emission at 590 nm. The 50% inhibitory concentrations (IC50) of compounds were determined as the mean ± S.E.M. in triplicate from the dose-response inhibition curves using SigmaPlot® 13.0 (Systat Software Inc., San Jose, CA, USA).

The subject of experiment [2] is PC12 cells. Kind of experiment: Protective effect against rotenone-induced cytotoxicity in PC12 cells (MTT). Conditions: Rattus norvegicus, PC-12, read-out: IC50 against rotenone-induced cytotoxicity. The protocol: (§1) PC12 cells were routinely maintained in RPMI-1640 media containing 100 IU/mL penicillin, and 100 μg/mL streptomycin supplemented by 10% heat-inactivated HS, 5% FBS in a humidified incubator containing 5% CO2 and 95% air at 37 °C [25]. The cell culture media was changed every two days. To perform experiments, cells were plated on poly-D-lysine/laminin-coated 24-well plates at a density of 3 × 10^5 cells/well and incubated for at least 24 h to allow cell adhesion.
(§2) To examine the effects of the test compounds on cell survival, cells were incubated in low serum media (1% HS, 1% FBS, 100 IU/mL penicillin, and 100 μg/mL streptomycin) with test compounds at the concentrations of 10 and 30 μM or an equivalent volume of vehicle control (DMSO at the final concentration of 0.3%) for 24 h. The media containing test compounds was sonicated at room temperature for 30 min to assure adequate dissolution in the media. […]
(§3) After the desired treatment, cell viability was determined by MTT assay as described previously, with slight modification. […] The absorbance of the dissolved solution was measured at 550 nm using a microplate reader (SpectraMax M2e, Molecular Devices, Sunnyvale, CA, USA). The cell viability was presented as the percentage of the absorbance measured in the vehicle-treated control cells. […]

The test system of experiment [3] is PC12 cells. Nature of the experiment: Protective effect against 6-OHDA-induced cytotoxicity in PC12 cells (MTT). Conditions: Rattus norvegicus, PC-12, read-out: IC50 against 6-OHDA-induced cytotoxicity. The protocol:
as §1, §2, §3

“And” between values parts separate entries of the source, which are not always exact repeats. Identical values can stand only once. “Also recorded” adds a separate entry of the source.

Turning to `O=C(Nc1ccc(I)cc1)c1ccc2[nH]ccc2c1` [Compound 8a, N-(4-iodophenyl)-1H-indole-5-carboxamide], on hMAO-B enzyme, the “Type of MAO-B inhibition” value is “competitive, and accordingly, reversible; also recorded: Competitive inhibition”; the Ki was 10.3 nM. Also, in experiment [1], the IC50 was found to be 27.4 nM, the “Selectivity Index (SI)” value is over 3649, the “% Inhibition of MAO-B at 10 µM” value is listed as 99.3 ± 0.0% and the inhibition at 10 µM is over 99%.

For the compound `O=C(Nc1ccc2c(c1)OCO2)c1ccc2[nH]ccc2c1` [Compound 8e, N-(benzo[d][1,3]dioxol-5-yl)-1H-indole-5-carboxamide], in experiment [1], the IC50 is 450 nM and 453 nM; the “Selectivity Index (SI)” value was over 220; the inhibition at 10 µM came to 89.6 ± 0.4%.

With `O=C(Nc1ccc(Br)cc1)c1ccc2[nH]ccc2c1` [Compound 8b, N-(4-bromophenyl)-1H-indole-5-carboxamide], the IC50 with PC12 cells [2] amounted to 3300 nM. Further, at hMAO-B enzyme, the “Type of MAO-B inhibition” value is “competitive, and accordingly, reversible; also recorded: Competitive inhibition”; the Ki came to 6.63 nM. In the experiment on PC12 cells [3], the IC50 was found to be 2800 nM. Moreover, in experiment [1], the IC50 was 30 nM and 30.5 nM; the “Selectivity Index (SI)” value is given as over 3278; the “% Inhibition of MAO-B at 10 µM” value is recorded as 99.4 ± 0.0%; the inhibition at 10 µM is over 99%.

With `COC(=O)c1ccc2c(ccn2C(=O)c2ccc(Cl)c(Cl)c2)c1` [Compound 7b, Methyl 1-(3,4-dichlorobenzoyl)-1H-indole-5-carboxylate], in experiment [1], the IC50 is 330 nM and 328 nM; the “Selectivity Index (SI)” value is over 305; the inhibition at 10 µM amounted to 84.1%.
